Assay results from PubChem BioAssay (NCI).
Several values for one entry are separate records, joined by “and”; a condition that tells them apart may be missing. Equal entries are not always repeated.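 In this assay, cells in 96-well plates receive the compound at five concentrations for 48 hours. Endpoints are linearly interpolated between the surrounding concentrations. Here, GI50 denotes the concentration required for 50% inhibition of growth. TGI denotes the concentration required for complete inhibition of growth.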

Tests used:
Test in all cases: NCI tumour cell line growth inhibition, 48 h
786-0 renal = tested on: 786-0 renal
HCT-116 colon = tested on: HCT-116 colon
HCT-15 colon = tested on: HCT-15 colon
NCI-H460 lung = tested on: NCI-H460 lung
OVCAR-3 ovarian = tested on: OVCAR-3 ovarian
SK-OV-3 ovarian = tested on: SK-OV-3 ovarian
U251 CNS = tested on: U251 CNS
SF-268 CNS = tested on: SF-268 CNS
NCI/ADR-RES ovarian = tested on: NCI/ADR-RES ovarian
DU-145 prostate = tested on: DU-145 prostate

SMILES | TGI (786-0 renal) | TGI (HCT-116 colon) | TGI (HCT-15 colon) | TGI (NCI-H460 lung) | TGI (OVCAR-3 ovarian) | TGI (SK-OV-3 ovarian) | TGI (U251 CNS) | TGI (SF-268 CNS) | GI50 (HCT-116 colon) | GI50 (HCT-15 colon) | GI50 (NCI-H460 lung) | TGI (NCI/ADR-RES ovarian) | GI50 (OVCAR-3 ovarian) | GI50 (SF-268 CNS) | GI50 (U251 CNS) | GI50 (786-0 renal) | GI50 (DU-145 prostate) | TGI (DU-145 prostate) | GI50 (NCI/ADR-RES ovarian) | GI50 (SK-OV-3 ovarian)
COc1cc(-c2nccc3cc(OC)c(OC)cc23)ccc1O | > 100 µM | > 100 µM | 96.1 µM | > 100 µM | > 100 µM | > 100 µM | > 100 µM | – | – | – | – | – | – | – | – | – | – | – | – | –
O=C(O)C[C@@H](Cl)[C@H](NC(=O)OCc1ccccc1)C(=O)O | > 100 µM | > 100 µM | > 100 µM | > 100 µM | > 100 µM | > 100 µM | > 100 µM | > 100 µM | – | – | – | – | – | – | – | – | – | – | – | –
CSCS(=O)C[C@H](CO)NC(=O)/C=C/c1c(C)[nH]c(=O)[nH]c1=O (some centres not stated) | 5.23 µM | – | 13.6 µM and 6.92 µM | > 27.6 µM and 7.55 µM | 4.63 µM and 3.98 µM | 6.11 µM and 6.96 µM | 3.63 µM and 1.91 µM | 3.86 µM and 1.37 µM | 3.16 µM | 2.93 µM | 1.19 µM | 6.07 µM | 1.89 µM | 0.571 µM | 0.498 µM and 0.297 µM | – | – | – | – | –
COc1cc(C2CC(c3cccc(Nc4ccnc5cc(Cl)ccc45)c3)=NN2c2ccc(Cl)cc2)cc(OC)c1OC (configuration not stated) | 26.2 µM | > 100 µM | > 100 µM | > 100 µM | > 100 µM | > 100 µM | – | > 100 µM | 1.68 µM | 1.28 µM | 0.772 µM | > 100 µM | 3.72 µM | 8.16 µM | – | 2.05 µM | 17.1 µM | > 100 µM | 3.18 µM | 17.3 µM
COc1cc(OC)c(C(=O)c2cccs2)cc1N | > 100 µM | – | > 100 µM | > 100 µM | > 100 µM | > 100 µM | > 100 µM | > 100 µM | – | – | – | – | – | – | – | – | – | – | – | –
Cc1cccc(-n2c(N)c(-c3nc4ccccc4[nH]3)sc2=S)c1 | 54.1 µM | – | 62.3 µM | – | 62.1 µM | 91.7 µM | 43.2 µM | > 100 µM | – | – | – | – | – | – | – | – | – | – | – | –
CCC[CH2][Sn]([CH2]CCC)([O]c1cccc2cccnc12)[O]c1cccc2cccnc12 | 0.607 µM | 0.385 µM | 0.339 µM | 1.17 µM | 0.324 µM | 3.33 µM | 0.368 µM | 0.575 µM | 0.189 µM | 0.167 µM | 0.382 µM | – | 0.167 µM | 0.203 µM | 0.198 µM | 0.237 µM | – | – | – | 1.91 µM
COC(=O)c1ccccc1N(C(=O)c1ccccc1)c1ccccc1C | > 100 µM | > 100 µM | > 100 µM | > 100 µM | > 100 µM | 69.1 µM | > 100 µM | > 100 µM | – | – | – | – | – | – | – | – | – | – | – | –
O=S(=O)([O-])c1ccc(N=Cc2ccccc2[O-])cc1.O=S(=O)([O-])c1ccc(N=Cc2ccccc2[O-])cc1.[Co+2] | > 100 µM | – | > 100 µM | – | – | > 100 µM | – | 79.3 µM | – | > 100 µM | – | – | – | 20.7 µM | – | 76.7 µM | – | – | – | 36.6 µM
CN1CN(C2OC(CO)C(O)C2O)c2nc(N)[nH]c(=O)c21 (configuration not stated) | > 100 µM | > 100 µM | > 100 µM | > 100 µM | > 100 µM | > 100 µM | > 100 µM | > 100 µM | – | – | – | – | – | – | – | – | – | – | – | –
C=C(CO)CC(O)c1cc(OC)ccc1OC (configuration not stated) | > 100 µM | – | > 100 µM | > 100 µM | > 100 µM | > 100 µM | > 100 µM | > 100 µM | – | – | – | – | – | – | – | – | – | – | – | –
Oc1ccc(O)c(-c2cn3c(n2)SCC3)c1 | 6.59 µM | 7.81 µM | 36.9 µM | > 100 µM | 28.1 µM | 40.6 µM | 33.6 µM | > 100 µM | 3.07 µM | 19.1 µM | 60.9 µM | 39.1 µM | 9.36 µM | 28.7 µM | 18.3 µM | 2.32 µM | – | – | 17.2 µM | 12.5 µM
CO[C@@H]1C=C[C@@]23c4cc5c(cc4CN(C[C@@H]2O)[C@H]3C1)OCO5 | > 100 µM | – | > 100 µM | > 100 µM | > 100 µM | > 100 µM | 73.1 µM | > 100 µM | – | – | – | – | – | – | – | – | – | – | – | –
N#CC(/C(CCC(=O)Nc1ccc(Cl)cc1)=N/NC(=O)c1cc2ccccc2cc1O)c1ccccc1 (configuration not stated) | > 100 µM | > 100 µM | – | > 100 µM | > 100 µM | – | > 100 µM | > 100 µM | – | – | – | – | – | – | – | – | – | – | – | –
CCOC(=O)C1SC(=Nc2ccc(OC)c(OC)c2)N=C1C (configuration not stated) | 90.2 µM | > 100 µM | > 100 µM | > 100 µM | 86.7 µM | > 100 µM | > 100 µM | > 100 µM | – | – | – | – | – | – | – | – | – | – | – | –
O=C/C1=C/C2=Cc3ccccc3C=C(/C=C(/C=O)C1)C2 | > 100 µM | 48.3 µM | > 100 µM | > 100 µM | 98.4 µM | – | > 100 µM | > 100 µM | – | – | – | – | – | – | – | – | – | – | – | –
COC(OC)c1cc2c(cc1C=O)OCO2 | > 100 µM | > 100 µM | – | > 100 µM | > 100 µM | > 100 µM | > 100 µM | > 100 µM | – | – | – | – | – | – | – | – | – | – | – | –
O=C1C(=O)N(c2ccc(Cl)cc2)C(=O)C(=O)C1c1nc2ccccc2o1 | > 100 µM | > 100 µM | > 100 µM | > 100 µM | > 100 µM | > 100 µM | > 100 µM | > 100 µM | – | – | – | – | – | – | – | – | – | – | – | –
O=C1C(Cl)=C(Nc2ccc(Nc3ccccc3)c(NC3=C(Cl)C(=O)c4ccccc4C3=O)c2)C(=O)c2ccccc21 | 46.5 µM | – | > 100 µM | 13 µM | 3.21 µM | – | 7.22 µM | 18.8 µM | – | 3.46 µM | 3.35 µM | > 100 µM | 1.69 µM | 3.63 µM | 2.32 µM | 15.2 µM | 14.9 µM | 28.4 µM | 27.5 µM | –
CC(C)N(O)C(=N)c1ccccc1 | > 100 µM | > 100 µM | – | > 100 µM | – | – | > 100 µM | > 100 µM | – | – | – | – | – | – | – | – | – | – | – | –
Cc1nc2c(c(N3CCCc4ccccc43)n1)CCC2 | > 100 µM | 20.6 µM | > 100 µM | > 100 µM | – | > 100 µM | > 100 µM | > 100 µM | < 0.01 µM | < 0.01 µM | < 0.01 µM | 0.364 µM | – | 0.0102 µM | < 0.01 µM | < 0.01 µM | < 0.01 µM | > 100 µM | < 0.01 µM | < 0.01 µM
